The record followed here is patent US20080299590A1, “SHC protein-related methods and compositions” (Roger Williams Hospital, priority 2005, published 2008).

For the experiment, the system named is breast cancer patients. As to the kind of experiment: Shc Test TMA study: protection by adjuvant tamoxifen or chemotherapy by Shc risk group (multivariate survival models). The experiment is classed as in vivo, human. The source says:
Materials and Methods: Patient samples included primary invasive tumor specimens from 4,326 British Columbian women in Tumor Micro-Array (TMA) format (no adjuvant therapy=1860; tamoxifen=1366; chemotherapy (AC, CMF, FAC, CEF)=744; relapsed=1752; died of disease=1334, average follow-up 13 yrs). Two additional sources were 65 primary tumor specimens from tamoxifen-only-treated patients (10 recurrences, 6.4 yrs average follow-up) from Roger Williams Medical Center (RWMC), and 32 (14 recurrences) from a published study (Massachusetts General Hospital (MGH)) (Ma et al., Cancer Cell, 5:1-10 (2004)). Immunohistochemistry (IHC) staining of the Shc proteins was scored on a continuous 0-5 scale by two pathologists, blinded to patient clinical data.
Analysis of relapse-free survival (RFS) and disease specific survival (DSS) used multivariate models under assumptions of both log-normality as well as proportionality of hazard rate.

SMILES strings stand for the structures.

With `CC/C(=C(\c1ccccc1)c1ccc(OCCN(C)C)cc1)c1ccccc1` [tamoxifen], the “hazard ratio (HR) of tamoxifen therapy” value (12% of patients classified as high risk by the Shc Test, node positive patients) is listed as 0.26. Besides, the benefit from tamoxifen entry (63% patients in the low risk group by the Shc Test) is given as “little benefit”.
